The target of test [1] is T1, HCV NS3/4A protease complexes (full-length hepatitis C NS3 protease enzyme) (Hepatitis C virus genotype 1a, UniProt P27958).
T1 construct: full-length hepatitis C NS3 protease enzyme
The test can be described thus: Inhibition assay (enzyme assay), depsipeptide substrate hydrolysis with NS4A cofactor. It counts as biochemical. To be noted: 1 nM enzyme, 25 μM NS4A cofactor, 0.5 μM substrate, 30° C. As for the experimental part:
The aim of this in vitro assay was to measure the inhibition of HCV NS3/4A protease complexes by the compounds of the present invention. This assay provides an indication of how effective compounds of the present invention would be in inhibiting HCV NS3/4A proteolytic activity.
The inhibition of full-length hepatitis C NS3 protease enzyme was measured essentially as described in Poliakov, 2002 Prot Expression & Purification 25 363 371. Briefly, the hydrolysis of a depsipeptide substrate, Ac-DED(Edans)EEAbuψ[COO]ASK(Dabcyl)-NH2 (AnaSpec, San José, USA), was measured spectrofluorometrically in the presence of a peptide cofactor, KKGSVVIVGRIVLSGK (Åke Engström, Department of Medical Biochemistry and Microbiology, Uppsala University, Sweden). [Landro, 1997 #Biochem 36 9340-9348]. The enzyme (1 nM) was incubated in 50 mM HEPES, pH 7.5, 10 mM DTT, 40% glycerol, 0.1% n-octyl-D-glucoside, with 25 μM NS4A cofactor and inhibitor at 30° C. for 10 min, whereupon the reaction was initiated by addition of 0.5 μM substrate. Inhibitors were dissolved in DMSO, sonicated for 30 sec. and vortexed. The solutions were stored at −20° C. between measurements.
The final concentration of DMSO in the assay sample was adjusted to 3.3%. The rate of hydrolysis was corrected for inner filter effects according to published procedures [Liu, Analytical Biochemistry, 1999, vol. 267, pp. 331-335]. Ki values were estimated by non-linear regression analysis (GraFit, Erithacus Software, Staines, MX, UK), using a model for competitive inhibition and a fixed value for Km (0.15 μM). A minimum of two replicates was performed for all measurements.

Test [2] concerns HCV replicons (Huh-7 luc/neo cells, NS3-NS5B regions of HCV type 1b). Description: Replicon assay (Huh-Luc luciferase, HCV RNA replication). It counts as cell-based. Particulars: Hepatitis C virus, Huh-7, 72 h, read-out: EC50 Replicon assay. The source says: The compounds of formula (I) were examined for activity in the inhibition of HCV RNA replication in a cellular assay. […] The cellular assay was based on a bicistronic expression construct, as described by Lohmann et al. (1999) Science vol. 285 pp. 110-113 with modifications described by Krieger et al. (2001) Journal of Virology 75: 4614-4624, in a multi-target screening strategy. In essence, the method was as follows.
The assay utilized the stably transfected cell line Huh-7 luc/neo (hereafter referred to as Huh-Luc). This cell line harbors an RNA encoding a bicistronic expression construct comprising the wild type NS3-NS5B regions of HCV type 1b translated from an Internal Ribosome Entry Site (IRES) from encephalomyocarditis virus (EMCV), preceded by a reporter portion (FfL-luciferase), and a selectable marker portion (neo^R, neomycine phosphotransferase). The construct is bordered by 5′ and 3′ NTRs (non-translated regions) from HCV type 1b. Continued culture of the replicon cells in the presence of G418 (neo^R) is dependent on the replication of the HCV RNA. The stably transfected replicon cells that express HCV RNA, which replicates autonomously and to high levels, encoding inter alia luciferase, are used for screening the antiviral compounds.
The replicon cells were plated in 384 well plates in the presence of the test and control compounds which were added in various concentrations. Following an incubation of three days, HCV replication was measured by assaying luciferase activity (using standard luciferase assay substrates and reagents and a Perkin Elmer ViewLux™ ultraHTS microplate imager). Replicon cells in the control cultures have high luciferase expression in the absence of any inhibitor. The inhibitory activity of the compound on luciferase activity was monitored on the Huh-Luc cells, enabling a dose-response curve for each test compound. EC50 values were then calculated, which value represents the amount of the compound required to decrease by 50% the level of detected luciferase activity, or more specifically, the ability of the genetically linked HCV replicon RNA to replicate.
For orientation: In antiviral work, replicon cells carry a viral genome segment that copies itself.

Where [3] appears, read: Huh-Luc cells, three days incubation, luciferase activity.

Like-named read-outs stand apart in the source and are kept apart here.

T1 sequence (P27958 1027-1657, one chain of several): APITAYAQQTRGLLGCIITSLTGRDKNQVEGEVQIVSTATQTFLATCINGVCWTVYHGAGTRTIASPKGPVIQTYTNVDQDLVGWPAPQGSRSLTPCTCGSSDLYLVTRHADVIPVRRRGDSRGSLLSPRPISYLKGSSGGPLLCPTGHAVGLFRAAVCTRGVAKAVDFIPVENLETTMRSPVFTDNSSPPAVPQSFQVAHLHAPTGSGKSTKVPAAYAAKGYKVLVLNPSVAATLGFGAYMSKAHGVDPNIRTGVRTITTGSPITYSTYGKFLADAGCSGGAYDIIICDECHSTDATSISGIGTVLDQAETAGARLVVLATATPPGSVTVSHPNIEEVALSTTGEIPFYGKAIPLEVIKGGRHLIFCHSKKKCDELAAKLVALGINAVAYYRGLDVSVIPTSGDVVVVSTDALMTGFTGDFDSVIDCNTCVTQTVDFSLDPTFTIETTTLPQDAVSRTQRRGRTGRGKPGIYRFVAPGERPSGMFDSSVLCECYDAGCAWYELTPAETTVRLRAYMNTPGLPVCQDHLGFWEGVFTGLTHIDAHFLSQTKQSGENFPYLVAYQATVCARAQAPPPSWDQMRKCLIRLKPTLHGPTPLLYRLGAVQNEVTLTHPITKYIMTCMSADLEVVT

One may read the Ki as a dissociation constant, usually derived from enzyme kinetics or from competition with a known ligand. The low end stands for higher affinity, the high end for lower affinity. As usually defined, the EC50 is the concentration at which the effect is half-maximal. On to `CN1CCCCC=CC2CC2(C(=O)NS(=O)(=O)C2CC2)NC(=O)C2CC(OC(=O)Nc3ccccc3C#N)CC2C1=O` (stereo not drawn) [Example 1, (2-Cyanophenyl)-carbamic acid 4-cyclopropanesulfonylaminocarbonyl-13-methyl-2,14-dioxo-3,13-diaza-tricyclo[13.3.0.0*4,6*]octadec-7-en-17-yl ester], for which the inhibitory constant (Ki) in test [1] is 30 to 100 nM. For the same molecule, the half-maximal effective concentration (EC50) in test [2] (setting [3]) was above 10000 nM. Consider `CN1CCCC/C=C\[C@@H]2C[C@@]2(C(=O)NS(=O)(=O)C2CC2)NC(=O)[C@@H]2C[C@@H](OC(=O)Nc3ccccc3Oc3ccccc3)C[C@H]2C1=O` [Example 2, (2-Phenoxyphenyl)-carbamic acid 4-cyclopropanesulfonylaminocarbonyl-13-methyl-2,14-dioxo-3,13-diaza-tricyclo[13.3.0.0*4,6*]octadec-7-en-17-yl ester], for which, in test [1], the Ki is 0.1 to 29.9 nM. For the same molecule, the EC50 in test [2] (setting [3]) is 1000 to 10000 nM. In test [1], `COc1ccccc1NC(=O)O[C@@H]1C[C@H]2C(=O)N[C@]3(C(=O)NS(=O)(=O)C4CC4)C[C@H]3/C=C\CCCCN(C)C(=O)[C@@H]2C1` [Example 3, (2-Methoxy-phenyl)-carbamic acid 4-cyclopropanesulfonylaminocarbonyl-13-methyl-2,14-dioxo-3,13-diaza-tricyclo[13.3.0.0*4,6*]octadec-7-en-17-yl ester] showed a Ki of 0.1 to 29.9 nM. Besides, in test [2] (setting [3]), the EC50 fell in the range of 1000 to 10000 nM. For the molecule `COC(=O)c1cccc(NC(=O)O[C@@H]2C[C@H]3C(=O)N[C@]4(C(=O)NS(=O)(=O)C5CC5)C[C@H]4/C=C\CCCCN(C)C(=O)[C@@H]3C2)c1` [Example 5, 3-(4-Cyclopropanesulfonylaminocarbonyl-13-methyl-2,14-dioxo-3,13-diaza-tricyclo-[13.3.0.0*4,6*]octadec-7-en-17-yloxycarbonylamino)-benzoic acid methyl ester], in test [2] (setting [3]), the concentration giving a half-maximal response (EC50) was 1000 to 10000 nM. With `COc1ccc(C#N)cc1NC(=O)OC1CC2C(=O)NC3(C(=O)NS(=O)(=O)C4(C)CC4)CC3C=CCCCCN(C)C(=O)C2C1` (stereo not drawn) [Example 6c, (5-Cyano-2-methoxy-phenyl)-carbamic acid 13-methyl-4-(1-methyl-cyclopropanesulfonylaminocarbonyl)-2,14-dioxo-3,13-diaza-tricyclo[13.3.0.0*4,6*]-octadec-7-en-17-yl ester], in test [2] (setting [3]), the EC50 was above 10000 nM.

With `CN1CCCC/C=C\[C@@H]2C[C@@]2(C(=O)NS(=O)(=O)C2(C)CC2)NC(=O)[C@@H]2C[C@@H](OC(=O)Nc3cccc(N(C)C)c3)C[C@H]2C1=O` [Example 9, (3-Dimethylaminophenyl)-carbamic acid 13-methyl-4-(1-methyl-cyclopropane-sulfonylaminocarbonyl)-2,14-dioxo-3,13-diaza-tricyclo[13.3.0.0*4,6*]octadec-7-en-17-yl ester], the half-maximal effective concentration (EC50) in test [2] is 1000 to 10000 nM. For `COc1cccc(NC(=O)O[C@@H]2C[C@H]3C(=O)N[C@]4(C(=O)NS(=O)(=O)C5CC5)C[C@H]4/C=C\CCCCN(C)C(=O)[C@@H]3C2)c1` [Example 10, (3-Methoxyphenyl)-carbamic acid 4-cyclopropanesulfonylaminocarbonyl-13-methyl-2,14-dioxo-3,13-diaza-tricyclo[13.3.0.0*4,6*]octadec-7-en-17-yl ester], in test [2] (setting [3]), the 50% effective concentration (EC50) was 1000 to 10000 nM. Same read-out and setting: the figure for `CN1CCCC/C=C\[C@@H]2C[C@@]2(C(=O)NS(=O)(=O)C2CC2)NC(=O)[C@@H]2C[C@@H](OC(=O)Nc3cccc(Oc4ccccc4)c3)C[C@H]2C1=O` [Example 11, (3-Phenoxy-phenyl)-carbamic acid 4-cyclopropanesulfonylaminocarbonyl-13-methyl-2,14-dioxo-3,13-diaza-tricyclo[13.3.0.0*4,6*]octadec-7-en-17-yl ester] is 1000 to 10000 nM; for `CN1CCCC/C=C\[C@@H]2C[C@@]2(C(=O)NS(=O)(=O)C2CC2)NC(=O)[C@@H]2C[C@@H](OC(=O)Nc3cccc(C#N)c3)C[C@H]2C1=O` [Example 12, (3-Cyano-phenyl)-carbamic acid 4-cyclopropanesulfonylaminocarbonyl-13-methyl-2,14-dioxo-3,13-diaza-tricyclo[13.3.0.0*4,6*]octadec-7-en-17-yl ester] it is 200 to 990 nM. Still for that read-out and setting: with `CN1CCCC/C=C\[C@@H]2C[C@@]2(C(=O)NS(=O)(=O)C2(C)CC2)NC(=O)[C@@H]2C[C@@H](OC(=O)Nc3cccc(C#N)c3)C[C@H]2C1=O` [Example 13, (3-Cyanophenyl)-carbamic acid 13-methyl-4-(1-methylcyclopropanesulfonylamino-carbonyl)-2,14-dioxo-3,13-diaza-tricyclo[13.3.0.0*4,6*]octadec-7-en-17-yl ester] the figure was 0.5 to 199 nM. Still for that read-out and setting: with `COc1cccc(NC(=O)O[C@@H]2C[C@H]3C(=O)N[C@]4(C(=O)NS(=O)(=O)C5(C)CC5)C[C@H]4/C=C\CCCCN(C)C(=O)[C@@H]3C2)c1` [Example 14, (3-Methoxy-phenyl)-carbamic acid 13-methyl-4-(1-methyl-cyclopropanesulfonyl-aminocarbonyl)-2,14-dioxo-3,13-diaza-tricyclo[13.3.0.0*4,6*]octadec-7-en-17-yl ester] the figure was 200 to 990 nM; with `Cc1cccc(NC(=O)O[C@@H]2C[C@H]3C(=O)N[C@]4(C(=O)NS(=O)(=O)C5CC5)C[C@H]4/C=C\CCCCN(C)C(=O)[C@@H]3C2)c1` [Example 15, m-Tolyl-carbamic acid 4-cyclopropanesulfonylaminocarbonyl-13-methyl-2,14-dioxo-3,13-diaza-tricyclo[13.3.0.0*4,6*]octadec-7-en-17-yl ester], above 10000 nM; with `Cc1ccc(F)c(NC(=O)O[C@@H]2C[C@H]3C(=O)N[C@]4(C(=O)NS(=O)(=O)C5CC5)C[C@H]4/C=C\CCCCN(C)C(=O)[C@@H]3C2)c1` [Example 16, (2-Fluoro-5-methyl-phenyl)-carbamic acid 4-cyclopropanesulfonylaminocarbonyl-13-methyl-2,14-dioxo-3,13-diaza-tricyclo[13.3.0.0*4,6*]octadec-7-en-17-yl ester], 1000 to 10000 nM. Consider `Cc1nc(-c2cccc(NC(=O)O[C@@H]3C[C@H]4C(=O)N[C@]5(C(=O)NS(=O)(=O)C6CC6)C[C@H]5/C=C\CCCCN(C)C(=O)[C@@H]4C3)c2)cs1` [Example 17, [3-(2-Methyl-thiazol-4-yl)-phenyl]-carbamic acid 4-cyclopropanesulfonylamino-carbonyl-13-methyl-2,14-dioxo-3,13-diaza-tricyclo[13.3.0.0*4,6*]octadec-7-en-17-yl ester], for which the EC50 in test [2] (setting [3]) is 1000 to 10000 nM. Same read-out and setting: the figure for `Cc1ccc(C#N)c(NC(=O)O[C@@H]2C[C@H]3C(=O)N[C@]4(C(=O)NS(=O)(=O)C5CC5)C[C@H]4/C=C\CCCCN(C)C(=O)[C@@H]3C2)c1` [Example 18, (2-Cyano-5-methyl-phenyl)-carbamic acid 4-cyclopropanesulfonylaminocarbonyl-13-methyl-2,14-dioxo-3,13-diaza-tricyclo[13.3.0.0*4,6*]octadec-7-en-17-yl ester] is 200 to 990 nM.

Values taken from patent US8383584B2, “HCV inhibiting macrocyclic phenylcarbamates” (Medivir AB, priority 2007, dated 2013).
